Among the data in PubChem BioAssay (NCI) are TGI values, retold here.

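Each compound was tested at five concentrations against cells in 96-well plates for 48 hours. At the TGI there is no net growth.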

Some test systems named below: OVCAR-3 ovarian; MDA-MB-231 breast; SW-620 colon; SF-539 CNS; NCI/ADR-RES ovarian; CAKI-1 renal; NCI-H522 lung; MDA-N; HCT-15 colon; SK-MEL-28 melanoma.
Holding throughout (assay): inhibition of tumour cell growth, NCI panel, 48 h

As to `CCCCOC(=O)NC(Nc1cccc(C(F)(F)F)c1)(C(F)(F)F)C(F)(F)F`, the TGI with OVCAR-3 ovarian, in the assay on MDA-MB-231 breast, in the assay on SW-620 colon, in the assay on SF-539 CNS, in the assay with NCI/ADR-RES ovarian and with CAKI-1 renal was above 100 µM throughout. Besides, the TGI in the assay on NCI-H522 lung, in the assay with MDA-N, with HCT-15 colon and in the assay on SK-MEL-28 melanoma was above 100 µM throughout.

For the compound `COc1cc(C(=O)O[C@@H]2[C@@H](OC(=O)c3cc(OC)c(OC)c(OC)c3)[C@@H](OC)O[C@@H]3CO[C@@H](c4ccccc4)O[C@@H]23)cc(OC)c1OC`, the TGI in the assay on OVCAR-3 ovarian, with MDA-MB-231 breast, with SW-620 colon, in the assay on SF-539 CNS, with NCI/ADR-RES ovarian and in the assay with CAKI-1 renal was above 100 µM each time. Further, the TGI in the assay with NCI-H522 lung, with MDA-N, in the assay with HCT-15 colon and in the assay on SK-MEL-28 melanoma was above 100 µM each time.

In the case of `O=C1CC(=O)NC(=NN2C(=O)/C(=C/c3ccccc3)N=C2c2ccccc2)N1`, the TGI in the assay with OVCAR-3 ovarian, in the assay on MDA-MB-231 breast, with SW-620 colon, with SF-539 CNS, with NCI/ADR-RES ovarian and in the assay with CAKI-1 renal was above 100 µM in each case. Also, the TGI with NCI-H522 lung, in the assay with MDA-N, in the assay on HCT-15 colon and in the assay on SK-MEL-28 melanoma was above 100 µM throughout.

Take `Cc1c2c(n(CCc3ccccc3)c1C)N(C)N=C(C#N)S2(=O)=O`: the TGI with OVCAR-3 ovarian, in the assay on MDA-MB-231 breast, in the assay on SW-620 colon, in the assay with SF-539 CNS, in the assay with NCI/ADR-RES ovarian and in the assay with CAKI-1 renal was above 100 µM each time. The TGI in the assay with NCI-H522 lung, with MDA-N, with HCT-15 colon and with SK-MEL-28 melanoma was above 100 µM each time.

As for `CC1(C)CC23CC(C)(C)c4cccc(c42)OCc2ccc4ccc5ccc(nc5c4n2)COc2cccc1c23`, the TGI in the assay on OVCAR-3 ovarian, in the assay with MDA-MB-231 breast, in the assay on SW-620 colon, with SF-539 CNS, in the assay on NCI/ADR-RES ovarian and with CAKI-1 renal was above 50 µM throughout. Further, the TGI in the assay with NCI-H522 lung, in the assay on MDA-N, in the assay with HCT-15 colon and in the assay with SK-MEL-28 melanoma was above 50 µM throughout.

`Cc1cccc(CC(Cc2c(C)cccc2C(=O)O)C(=O)O)c1` (stereo not given): the TGI in the assay with OVCAR-3 ovarian, in the assay on MDA-MB-231 breast, in the assay on SW-620 colon, with SF-539 CNS, with NCI/ADR-RES ovarian and with CAKI-1 renal was above 100 µM throughout. The TGI in the assay on NCI-H522 lung, in the assay with MDA-N, in the assay on HCT-15 colon and in the assay with SK-MEL-28 melanoma was above 100 µM throughout.

For `Nc1ncc(Cl)c(NCC2(CO)CC(CCc3ccccc3)C2)n1` (stereo not given), the TGI with OVCAR-3 ovarian, in the assay on MDA-MB-231 breast, in the assay on SW-620 colon, in the assay with SF-539 CNS, in the assay with NCI/ADR-RES ovarian and in the assay on CAKI-1 renal was above 100 µM in each case. Further, the TGI in the assay on NCI-H522 lung, with MDA-N, in the assay on HCT-15 colon and with SK-MEL-28 melanoma was above 100 µM in each case.

Consider `CC=CCOc1cc(NC(=S)OC(C)C)ccc1Cl` (mixture of isomers), for which the TGI in the assay with OVCAR-3 ovarian was 38.1 µM; in the assay on MDA-MB-231 breast, 51.5 µM; in the assay with SW-620 colon it was 35.3 µM; in the assay with SF-539 CNS, 36.1 µM; with NCI/ADR-RES ovarian, 31.9 µM; in the assay with CAKI-1 renal, 22.8 µM. Besides, the TGI came out at 28 µM with NCI-H522 lung, 35.4 µM in the assay with MDA-N, 33.7 µM in the assay with HCT-15 colon and 33.7 µM with SK-MEL-28 melanoma.

For `C=C(C)CC1(O)C(=O)C(OCC)=C1OCC` (stereo not given), the TGI in the assay on OVCAR-3 ovarian, with MDA-MB-231 breast, in the assay on SW-620 colon, in the assay with SF-539 CNS, in the assay on NCI/ADR-RES ovarian and in the assay on CAKI-1 renal was above 100 µM each time. In addition, the TGI in the assay on NCI-H522 lung, in the assay with MDA-N, with HCT-15 colon and in the assay with SK-MEL-28 melanoma was above 100 µM in each case.

For `Cc1nn(C(=O)c2ccncc2)c2c1C(c1ccccc1)SC(N)=N2` (stereo not given), the TGI in the assay with OVCAR-3 ovarian, with MDA-MB-231 breast, in the assay on SW-620 colon, with SF-539 CNS, in the assay on NCI/ADR-RES ovarian and in the assay on CAKI-1 renal was above 10 µM in each case. Further, the TGI in the assay on NCI-H522 lung, in the assay on MDA-N, in the assay on HCT-15 colon and in the assay on SK-MEL-28 melanoma was above 10 µM throughout.

In the case of `Cc1cc(S(=O)(=O)/N=C(\[N-]S(=O)(=O)c2ccc(Cl)cc2)[n+]2ccc(N(C)C)cc2)c(S)cc1Cl`, the TGI in the assay on OVCAR-3 ovarian, with MDA-MB-231 breast, in the assay with SW-620 colon, with SF-539 CNS, in the assay on NCI/ADR-RES ovarian and with CAKI-1 renal was above 100 µM in each case. Moreover, the TGI in the assay on NCI-H522 lung, with MDA-N, in the assay with HCT-15 colon and in the assay on SK-MEL-28 melanoma was above 100 µM in each case.

Consider `CCOC(=O)Cc1csc2[n+]1C(=O)/C(=C\c1cccc(Cl)c1Cl)S2`, for which the TGI was determined as 42.1 µM with OVCAR-3 ovarian; 87.4 µM in the assay on MDA-MB-231 breast; 56.6 µM in the assay on SW-620 colon; 47.1 µM in the assay on SF-539 CNS; 33.2 µM in the assay with NCI/ADR-RES ovarian; 48.7 µM in the assay on CAKI-1 renal. Besides, the TGI was found to be 41.3 µM with NCI-H522 lung, 56.6 µM with MDA-N, 31.9 µM in the assay on HCT-15 colon and 50.9 µM with SK-MEL-28 melanoma.

As for `CCN(CC)C(=S)SS(=O)(=O)c1ccc(Cl)cc1`, the TGI in the assay on OVCAR-3 ovarian was above 100 µM; in the assay on MDA-MB-231 breast, above 100 µM; in the assay with SW-620 colon, 37 µM; in the assay on SF-539 CNS, 43.5 µM; in the assay with NCI/ADR-RES ovarian it was above 100 µM; in the assay on CAKI-1 renal, 43.5 µM. Also, the TGI in the assay with NCI-H522 lung was 0.0995 µM; in the assay on MDA-N, above 100 µM; with HCT-15 colon it was above 100 µM; with SK-MEL-28 melanoma, 34.4 µM.

With `O=C(/C=C1\C[C@H]2C=Nc3ccccc3C(=O)N2C1)NCCCCNC(=O)/C=C1\C[C@H]2C=Nc3ccccc3C(=O)N2C1`, the TGI was 36.3 µM in the assay on OVCAR-3 ovarian; 0.986 µM in the assay with MDA-MB-231 breast; 7.58 µM in the assay on SW-620 colon; 30.5 µM in the assay on SF-539 CNS; 47.1 µM in the assay with NCI/ADR-RES ovarian; 6.4 µM in the assay on CAKI-1 renal. Further, the TGI with NCI-H522 lung was 3.57 µM; with MDA-N it was 24.3 µM; in the assay with HCT-15 colon, 27.7 µM; with SK-MEL-28 melanoma, 33.3 µM.

For the compound `COc1ccc2c(c1)/C(=C\c1c(C)nc3sc(C)cn13)C(=O)N2`, the TGI in the assay with OVCAR-3 ovarian is 3.93 µM; in the assay on MDA-MB-231 breast, 73.6 µM; with SW-620 colon it was above 100 µM; in the assay with SF-539 CNS it was 9.58 µM; with NCI/ADR-RES ovarian, above 42.6 µM; in the assay on CAKI-1 renal it was above 100 µM. Further, the TGI was 1.53 µM in the assay with NCI-H522 lung, 0.46 µM in the assay with MDA-N, 74.6 µM with HCT-15 colon and above 100 µM with SK-MEL-28 melanoma.

As to `CC(C)(C)c1cc2c(O)c(c1)Cc1cc(C(C#N)(Cc3ccc4ccccc4c3)Cc3ccc4ccccc4c3)cc(c1O)Cc1cc(C(C)(C)C)cc(c1O)Cc1cc(C(C#N)(Cc3ccc4ccccc4c3)Cc3ccc4ccccc4c3)cc(c1O)C2`, the TGI with OVCAR-3 ovarian, with MDA-MB-231 breast, in the assay on SW-620 colon, in the assay on SF-539 CNS, in the assay with NCI/ADR-RES ovarian and in the assay with CAKI-1 renal was above 100 µM in each case. In addition, the TGI with NCI-H522 lung, in the assay on MDA-N, in the assay with HCT-15 colon and with SK-MEL-28 melanoma was above 100 µM each time.

Turning to `Oc1ccccc1C=Nc1ccc(-c2nc3ccccc3[nH]2)cc1`, the TGI with OVCAR-3 ovarian is above 100 µM; in the assay on MDA-MB-231 breast, above 100 µM; with SW-620 colon, above 100 µM; in the assay with SF-539 CNS, above 100 µM; in the assay on NCI/ADR-RES ovarian, 53.2 µM; in the assay on CAKI-1 renal it was above 100 µM. In addition, the TGI with NCI-H522 lung, with MDA-N, with HCT-15 colon and with SK-MEL-28 melanoma was above 100 µM each time.

Turning to `CCOP(=O)(C/C=C/Cn1nc(Br)c(=O)[nH]c1=O)OCC`, the TGI in the assay with OVCAR-3 ovarian, in the assay on MDA-MB-231 breast, in the assay on SW-620 colon, with SF-539 CNS, in the assay on NCI/ADR-RES ovarian and in the assay on CAKI-1 renal was above 100 µM throughout. Further, the TGI with NCI-H522 lung, with MDA-N, with HCT-15 colon and with SK-MEL-28 melanoma was above 100 µM throughout.

With `CC1=CCC2C3(C)CCC2(C(C)C)C1C3` (stereo not given) (tested in a mixture with another compound), the TGI in the assay with OVCAR-3 ovarian stood at 30.2 µM; in the assay with MDA-MB-231 breast, 55.6 µM; in the assay on SW-620 colon it was 53.7 µM; in the assay on SF-539 CNS, 87.4 µM; in the assay with NCI/ADR-RES ovarian, 37.7 µM; with CAKI-1 renal, 40.7 µM. For the same compound, the TGI is 39.3 µM in the assay on NCI-H522 lung, above 100 µM in the assay on MDA-N, 33.3 µM in the assay with HCT-15 colon and 88.6 µM with SK-MEL-28 melanoma.
